Activity calls are given as the source filed them. The calls are words filed in the database; no cut-off is given here.
What was measured:
MCF7 [1] = assay: Induction of cell cycle arrest in human MCF7 cells assessed as accumulation of cells at G2/M phase at 60 nM incubated for 24 hrs by PI staining based flow cytometry analysis (reference value: 14.36%); assay type: functional
MCF7 [2] = assay: Induction of apoptosis in human MCF7 cells assessed as viable cells at 60 nM incubated for 48 hrs by annexin V-FITC and PI staining based flow cytometry analysis (reference value: 92.4%); assay type: functional; settings: read-out: Activity
MCF7 [3] = assay: Induction of apoptosis in human MCF7 cells assessed as early apoptotic cells at 40 nM incubated for 48 hrs by annexin V-FITC and PI staining based flow cytometry analysis (reference value: 2.17%); assay type: functional
MCF7 [4] = assay: Inhibition of colony formation in human MCF7 cells measured after 24 hrs by crystal violet staining based analysis; assay type: functional, cell-based; settings: dose 20-40 nM
MCF7 [5] = assay: Induction of cell cycle arrest in human MCF7 cells assessed as accumulation of cells at G0/G1 phase at 60 nM incubated for 24 hrs by PI staining based flow cytometry analysis (reference value: 69.67%); assay type: functional
4T1 [6] = assay: Antitumor activity against mouse 4T1 cells xenografted in BALB/c mouse model assessed as tumor growth inhibition rate at 5 mg/kg, iv measured every two days for 2 weeks relative to control; assay type: functional; settings: 4T1, 336 h, read-out: TGI
MCF7 [7] = assay: Induction of apoptosis in human MCF7 cells assessed as viable cells at 20 nM incubated for 48 hrs by annexin V-FITC and PI staining based flow cytometry analysis (reference value: 92.4%); assay type: functional; settings: read-out: Activity
[8] = Toxicity in BALB/c mouse assessed as drug tolerance at 5 to 15 mg/kg, iv measured after 2 weeks; assay type: organism-based; settings: in vivo, 336 h, dose 5-15 mg/kg
[9] = Toxicity in BALB/c mouse assessed as effect on kidney at 5 to 15 mg/kg, iv measured after 2 weeks by H and E staining based analysis; assay type: organism-based; settings: in vivo, 336 h, dose 5-15 mg/kg
MCF7 [10] = assay: Induction of cell cycle arrest in human MCF7 cells incubated for 24 hrs by PI staining based flow cytometry analysis; assay type: functional; settings: dose 20-60 nM
4T1 [11] = assay: Antitumor activity against mouse 4T1 cells xenografted in BALB/c mouse model assessed as tumor growth inhibition rate at 15 mg/kg, iv measured every two days for 2 weeks relative to control; assay type: functional; settings: 4T1, 336 h, read-out: TGI
4T1 [12] = assay: Antiproliferative activity against mouse 4T1 cells measured after 72 hrs by MTT assay; assay type: functional, cell-based; settings: 4T1, 72 h
MCF7 [13] = assay: Induction of apoptosis in human MCF7 cells assessed as late apoptotic cells at 60 nM incubated for 48 hrs by annexin V-FITC and PI staining based flow cytometry analysis (reference value: 2.22%); assay type: functional
MCF7 [14] = assay: Induction of apoptosis in human MCF7 cells assessed as viable cells at 40 nM incubated for 48 hrs by annexin V-FITC and PI staining based flow cytometry analysis (reference value: 92.4%); assay type: functional; settings: read-out: Activity
MCF7 [15] = assay: Antiproliferative activity against human MCF7 cells measured after 72 hrs by MTT assay; assay type: functional, cell-based; settings: MCF7, 72 h
MCF7 [16] = assay: Inhibition of colony formation in human MCF7 cells at 60 nM measured after 24 hrs by crystal violet staining based analysis relative to control; assay type: functional
MCF7 [17] = assay: Induction of apoptosis in human MCF7 cells assessed as late apoptotic cells at 40 nM incubated for 48 hrs by annexin V-FITC and PI staining based flow cytometry analysis (reference value: 2.22%); assay type: functional
[18] = Toxicity in BALB/c mouse assessed as effect on body weight loss at 5 to 15 mg/kg, iv measured after 2 weeks; assay type: organism-based; settings: in vivo, 336 h, dose 5-15 mg/kg
MCF7 [19] = assay: Induction of apoptosis in human MCF7 cells incubated for 48 hrs by annexin V-FITC and PI staining based flow cytometry analysis; assay type: functional, cell-based; settings: dose 20-60 nM
MCF7 [20] = assay: Induction of apoptosis in human MCF7 cells assessed as necrotic cells at 60 nM incubated for 48 hrs by annexin V-FITC and PI staining based flow cytometry analysis (reference value: 2.25%); assay type: functional
MCF7 [21] = assay: Induction of apoptosis in human MCF7 cells assessed as late apoptotic cells at 20 nM incubated for 48 hrs by annexin V-FITC and PI staining based flow cytometry analysis (reference value: 2.22%); assay type: functional
MCF7 [22] = assay: Induction of cell cycle arrest in human MCF7 cells assessed as accumulation of cells at G0/G1 phase at 40 nM incubated for 24 hrs by PI staining based flow cytometry analysis (reference value: 69.67%); assay type: functional
[23] = Toxicity in BALB/c mouse assessed as effect on liver at 5 to 15 mg/kg, iv measured after 2 weeks by H and E staining based analysis; assay type: organism-based; settings: in vivo, 336 h, dose 5-15 mg/kg
[24] = Toxicity in BALB/c mouse assessed as effect on lung at 5 to 15 mg/kg, iv measured after 2 weeks by H and E staining based analysis; assay type: organism-based; settings: in vivo, 336 h, dose 5-15 mg/kg
A549 = assay: Antiproliferative activity against human A549 cells measured after 72 hrs by MTT assay; assay type: functional, cell-based; settings: A549, 72 h
MCF7 [25] = assay: Induction of cell cycle arrest in human MCF7 cells assessed as accumulation of cells at S phase at 20 nM incubated for 24 hrs by PI staining based flow cytometry analysis (reference value: 14.58%); assay type: functional
MCF7 [26] = assay: Induction of apoptosis in human MCF7 cells assessed as early apoptotic cells at 60 nM incubated for 48 hrs by annexin V-FITC and PI staining based flow cytometry analysis (reference value: 2.17%); assay type: functional
MCF7 [27] = assay: Induction of apoptosis in human MCF7 cells assessed as necrotic cells at 40 nM incubated for 48 hrs by annexin V-FITC and PI staining based flow cytometry analysis (reference value: 2.25%); assay type: functional
MCF7 [28] = assay: Induction of cell cycle arrest in human MCF7 cells assessed as accumulation of cells at S phase at 40 nM incubated for 24 hrs by PI staining based flow cytometry analysis (reference value: 14.58%); assay type: functional
MCF7 [29] = assay: Induction of apoptosis in human MCF7 cells assessed as necrotic cells at 20 nM incubated for 48 hrs by annexin V-FITC and PI staining based flow cytometry analysis (reference value: 2.25%); assay type: functional
[30] = Toxicity in BALB/c mouse assessed as effect on heart at 5 to 15 mg/kg, iv measured after 2 weeks by H and E staining based analysis; assay type: organism-based; settings: in vivo, 336 h, dose 5-15 mg/kg
MCF7 [31] = assay: Induction of apoptosis in human MCF7 cells assessed as early apoptotic cells at 20 nM incubated for 48 hrs by annexin V-FITC and PI staining based flow cytometry analysis (reference value: 2.17%); assay type: functional
MCF7 [32] = assay: Inhibition of cell migration in human MCF7 cells at 20 to 40 nM incubated for 24 hrs by wound healing assay; assay type: functional, cell-based; settings: dose 20-40 nM
Tubulin (Homo sapiens) [33] = molecular target: T1, Tubulin (Homo sapiens) (UniProt P68371+Q9H4B7+P0DPH7+P68366+Q13509+Q71U36+P04350+Q3ZCM7+P07437+P68363+Q9BQE3+Q6PEY2+Q13885+Q9BVA1+Q9BUF5); assay: Disruption of microtubule network in human MCF7 cells incubated for 24 hrs by immunofluorescence staining based confocal microscopic analysis; assay type: cell-based
MCF7 [34] = assay: Induction of cell cycle arrest in human MCF7 cells assessed as accumulation of cells at G2/M phase at 20 nM incubated for 24 hrs by PI staining based flow cytometry analysis (reference value: 14.36%); assay type: functional
SGC-7901 = assay: Antiproliferative activity against human SGC-7901 cells measured after 72 hrs by MTT assay; assay type: functional, cell-based; settings: SGC-7901, 72 h
[35] = Toxicity in BALB/c mouse assessed as effect on spleen at 5 to 15 mg/kg, iv measured after 2 weeks by H and E staining based analysis; assay type: organism-based; settings: in vivo, 336 h, dose 5-15 mg/kg
MCF7 [36] = assay: Induction of cell cycle arrest in human MCF7 cells assessed as accumulation of cells at S phase at 60 nM incubated for 24 hrs by PI staining based flow cytometry analysis (reference value: 14.58%); assay type: functional
Tubulin (Homo sapiens) [37] = molecular target: T1, Tubulin (Homo sapiens); assay: Inhibition of tubulin polymerization (unknown origin) measured every 60 secs for 90 mins by microplate reader based analysis; assay type: protein-complex assay; settings: dose 1-8 µM
MCF7 [38] = assay: Induction of cell cycle arrest in human MCF7 cells assessed as accumulation of cells at G2/M phase at 40 nM incubated for 24 hrs by PI staining based flow cytometry analysis (reference value: 14.36%); assay type: functional
MCF7 [39] = assay: Induction of cell cycle arrest in human MCF7 cells assessed as accumulation of cells at G0/G1 phase at 20 nM incubated for 24 hrs by PI staining based flow cytometry analysis (reference value: 69.67%); assay type: functional

IC50 (4T1 [12]): 32 nM
IC50 (MCF7 [15]): 20 nM
IC50 (A549): 45 nM
Activity (Tubulin (Homo sapiens) [33]): Active
IC50 (SGC-7901): 14 nM
inhibition (Tubulin (Homo sapiens) [37]): Dose-Dependent Effect
SMILES: COc1ccc(-c2ccc3nnn(-c4cc(OC)c(OC)c(OC)c4)c3c2)cc1O
Activity (MCF7 [1]): 50.23%
viability at 0.06 µM (MCF7 [2]): 60.9%
Activity (MCF7 [3]): 24.9%
inhibition (MCF7 [4]): Dose-Dependent Effect
Activity (MCF7 [5]): 27.42%
inhibition in vivo at 5 mg/kg (4T1 [6]): 49.5%
viability at 0.02 µM (MCF7 [7]): 83.6%
Activity [8]: Non-Toxic
Activity [9]: Non-Toxic
Activity (MCF7 [10]): Dose-Dependent Effect
inhibition in vivo at 15 mg/kg (4T1 [11]): 68.5%
Activity (MCF7 [13]): 10.6%
viability at 0.04 µM (MCF7 [14]): 62.9%
inhibition at 0.06 µM (MCF7 [16]): 100%
Activity (MCF7 [17]): 10.1%
Activity [18]: Non-Toxic
Activity (MCF7 [19]): Dose-Dependent Effect
Activity (MCF7 [20]): 2.05%
Activity (MCF7 [21]): 8.16%
Activity (MCF7 [22]): 38.73%
Activity [23]: Non-Toxic
Activity [24]: Non-Toxic
Activity (MCF7 [25]): 22.71%
Activity (MCF7 [26]): 26.4%
Activity (MCF7 [27]): 2.07%
Activity (MCF7 [28]): 34.21%
Activity (MCF7 [29]): 2.8%
Activity [30]: Non-Toxic
Activity (MCF7 [31]): 5.47%
inhibition (MCF7 [32]): Active
Activity (MCF7 [34]): 14.84%
Activity [35]: Non-Toxic
Activity (MCF7 [36]): 21.52%
Activity (MCF7 [38]): 26.14%
Activity (MCF7 [39]): 60.54%

Source: ChEMBL document CHEMBL5500332, “Structure-based approaches for the design of 6-aryl-1-(3,4,5-trimethoxyphenyl)-1H-benzo[d][1,2,3]triazoles as tubulin polymerization inhibitors” (Eur J Med Chem, 2024)
